Experimental data as given in patent US4574126A, “Pyridine derivatives histamine H2 -antagonists” (Smith Kline & French Laboratories Limited, priority 1982, dated 1986).

Key:
histamine H2 -receptors [1] = target: T1, histamine H2 -receptors (Cavia porcellus, UniProt P47747); experiment: guinea pig atrium test: inhibition of histamine-induced tachycardia in isolated right atrium; format: biochemical; conditions: histamine-induced rate increase, 60 min contact, read-out: pA2 (converted)
T1 construct: a spontaneously beating isolated portion of the guinea pig right atrium; from tissue; host or cells: isolated guinea pig right atrium
Procedure: In the guinea pig atrium test a spontaneously beating isolated portion of the guinea pig right atrium is secured under tension (300 mg) between an anchorage and a transducer in a 15 ml tissue bath and immersed in McEwens solution with constant aeration at a temperature of 37° C. The output from the transducer is amplified. Output is in turn fed to a flat bed recorder. Measured amounts of histamine are added to the tissue bath so that the histamine concentration increases step-wise until the rate of beating reaches a maximum. The tissue bath is washed out and filled with fresh McEwens solution containing compound under test. The solution is left in contact with the tissue for 60 min. and measured amounts of histamine are added again until a maximum rate is recorded. The assay is repeated with increasing concentrations of test compound and the dose of histamine giving 50% of maximum rate is noted. A dose ratio (DR) was calculated by comparing the concentrations of histamine required to produce 50% maximum response in the absence and in the presence of the antagonist. A plot of Log DR-1 against LOG D (the concentration of compound under test) is made and the point of intersection with the Log (DR-1) ordinate is taken as the measure of the activity (pA2 value).

histamine H2 -receptors [2] = target: T2, histamine H2 -receptors (Rattus norvegicus, UniProt P25102); experiment: lumen-perfused rat test: inhibition of histamine-stimulated secretion of gastric acid; format: in vivo; conditions: iv, lumen-perfused stomachs of rats anaesthetised with urethane, read-out: ED50 (for inhibiting sub-maximal acid secretion by 50%)
T2 construct: histamine-stimulated secretion of gastric acid from the lumen-perfused stomachs of rats anaesthetised with urethane; from tissue; host or cells: lumen-perfused stomach of urethane-anaesthetised female Sprague-Dawley rats (in vivo)
Text: These are actions of histamine which, according to Ash and Schild, Brit. J. Pharmac. Chemother. 27 247 (1966), are not mediated by histamine H1 -receptors.
Inhibition of histamine-stimulated secretion of gastric acid can be measured by using a lumen-perfused stomachs of rats anaesthetised with urethane using the following modification of the method of Ghosh and Schild, Brit. J. Pharmac. Chemother. 13 54 (1958):
Female Sprague-Dawley rats (160-200 g) are starved overnight and anaesthetised with urethane given intraperitoneally in one dose (200 mg). The trachea and jugular veins are both cannulated and a mid-line incision is made in the abdomen exposing the stomach which is cleared from connective tissue. […] The effluent is passed over a micro-flow pH electrode and recorded by a pH meter fed to an anti-log unit and flat-bed recorder. The basal output of acid secretion from the stomach is monitored by measurement of the pH of the perfusion effluent. A sub-maximal dose of histamine is continuously infused into the jugular vein and produces a stable plateau of acid secretion and the pH of the perfusion effluent is determined when this condition is obtained. […] The difference in acid secretion between basal output and the histamine stimulated plateau level and the reduction of acid secretion caused by the test compound are calculated from the difference in pH of the perfusion effluent. […]

T1 sequence (P47747 whole entry): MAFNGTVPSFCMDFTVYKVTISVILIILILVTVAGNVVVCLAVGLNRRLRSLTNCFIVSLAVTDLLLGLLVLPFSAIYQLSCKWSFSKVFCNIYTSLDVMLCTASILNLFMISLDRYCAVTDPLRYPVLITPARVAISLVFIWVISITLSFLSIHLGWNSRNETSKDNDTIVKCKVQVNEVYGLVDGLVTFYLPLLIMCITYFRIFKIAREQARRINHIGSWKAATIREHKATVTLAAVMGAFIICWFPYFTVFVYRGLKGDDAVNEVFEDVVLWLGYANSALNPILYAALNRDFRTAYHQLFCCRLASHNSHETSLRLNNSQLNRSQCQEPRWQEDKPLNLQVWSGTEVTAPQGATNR
T2 sequence (P25102 whole entry, the tested form may be a part): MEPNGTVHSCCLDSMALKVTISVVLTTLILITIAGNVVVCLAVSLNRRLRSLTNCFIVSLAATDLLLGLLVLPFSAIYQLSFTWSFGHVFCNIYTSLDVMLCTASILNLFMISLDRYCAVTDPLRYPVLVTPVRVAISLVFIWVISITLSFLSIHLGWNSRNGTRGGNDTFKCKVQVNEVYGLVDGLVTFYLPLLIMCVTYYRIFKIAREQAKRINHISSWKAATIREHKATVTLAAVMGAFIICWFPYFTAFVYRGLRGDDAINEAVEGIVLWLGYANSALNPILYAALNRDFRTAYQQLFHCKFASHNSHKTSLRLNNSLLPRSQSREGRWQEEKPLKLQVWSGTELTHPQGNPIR

| Kb (histamine H2 -receptors [1]) [nM] | ED50 (histamine H2 -receptors [2]) [µmol/kg] | Compound |
| --- | --- | --- |
| < 100 | < 0.1 | CNC(=NCCSCc1cc(CN(C)C)ccn1)NC#N [Example 1, N-cyano-N'-methyl-N"-[2-(4-dimethylaminomethyl-2-pyridylmethylthio)ethyl]-guanidine] |
| < 100 | < 0.1 | CNC(=C[N+](=O)[O-])NCCSCc1cc(CN(C)C)ccn1 [Example 2, 1-nitro-2-methylamino-2-[2-(4-dimethylaminomethyl-2-pyridylmethylthio)ethylamino]-ethylene] |
